The test system of test [1] is HCT-116 cells. Put plainly: Test for inhibiting sphere-forming ability of cancer cells in the presence of BSA (Test Example 2). The format is cell-based. The conditions noted are these: Homo sapiens, 96 h; HCT-116 spheres, 5% bovine serum albumin (BSA), 4 days, CellTiter-Glo; read-out: Sphere IC50 value (concentration for 50% inhibition of cell proliferation). The method, then: (§1) HCT-116 cells were available from the American Type Culture Collection (ATCC). HCT-116 cells were cultured at 37° C. and 5% CO2 using the McCoy's 5a medium containing 10% fetal bovine serum (FBS) and 1% penicillin/streptomycin. […] The test compounds were added into each well to adjust the final concentration of DMSO to 0.1%, and the cells were cultured for 4 days.

Test [2] has as its system HCT-116 tumor-bearing mouse. Put plainly: Anti-tumor effect to HCT-116 tumor-bearing mouse (Test Example 4). The format is in vivo. The note with it: nude mouse, oral. The source says:
The present compound can be used to evaluate the anti-tumor effect thereof. A 4 to 7-week-old nude mouse (BALB/cAnNCrj-nu/nu, female, CHARLES RIVER LABORATORIES JAPAN, INC.) received intradermal transplantation of HCT-116 cells (ATCC) in an amount of 3×10^6 cells/mouse around the ventral portion. The engraftment of HCT-116 cells was observed 5 to 14 days after the transplantation, and then each compound suspended in a solvent such as 0.5% methylcellulose solution was orally administrated to the mouse in a dose of 1 to 100 mg/kg one to twice daily. The tumor volume was measured over time after the administration to evaluate the effect for reducing the tumor volume by the administration of each compound. The tumor volume can be calculated from the minor axis and the major axis of the tumor measured with a digital caliper (Mitutoyo) according to the following formula: Tumor volume [mm^3]=0.5×minor axis [mm]×(major axis [mm])^2
The tumor volume in control administration group treated with only a solvent such as 0.5% methylcellulose solution was compared with that of the present compound administration group, and T/C value was calculated according the following formula to evaluate the anti-tumor effect of the present compound. T/C (%)=(the tumor volume at the end of administration in the present compound administration group−the tumor volume at the start of administration in the present compound administration group)/(the tumor volume at the end of administration in the control administration group−the tumor volume at the start of administration in the […] administration group)×100
The T/C values (%) of the present compound on each dosage and administration period in the HCT-116 tumor-bearing mouse are shown below.

Test [3] deals with HCT-116 cells. The test is described as follows: Inhibition of sphere-forming ability of cancer cells (Test Example 1). The format is cell-based. The note with it: Homo sapiens, 96 h; HCT-116 spheres, non-adherent, serum-free, 4 days, CellTiter-Glo; read-out: Sphere IC50 value (concentration for 50% inhibition of cell proliferation). The method, then: as §1
Where [4] appears, read: dosage 30 mg/kg, administration period 17 days.
[5] abbreviates: dosage 100 mg/kg, administration period 17 days.

Here are results for eleven compounds from patent US11661397B2, “1,4-disubstituted imidazole derivative” (Sumitomo Pharma Co., Ltd., priority 2015, dated 2023).

“And” between values parts separate entries of the source, which are not always exact repeats. Identical values can stand only once.

Take `O=C(Nc1cn(Cc2cccc(C(F)(F)F)c2)cn1)c1ccc(CO)nc1` [Example 12, 6-(hydroxymethyl)-N-{1-[3-(trifluoromethyl)benzyl]-1H-imidazol-4-yl}nicotinamide]: the values for the IC50 in the test on HCT-116 cells [1] and in the test with HCT-116 cells [3] were 60 nM and less than 10 nM, respectively. Moreover, in test [2] (dosage 100 mg/kg, administration period 16 days), the “T/C (%)” value is on record as 49%.
Consider `O=C(Nc1cn(Cc2cccc(C(F)(F)F)c2)cn1)c1cnc(CO)c(C(F)F)c1` [Example 17, 5-(difluoromethyl)-6-(hydroxymethyl)-N-{1-[3-(trifluoromethyl)benzyl]-1H-imidazol-4-yl}nicotinamide], for which the IC50 in the test on HCT-116 cells [1] was 57 nM; in the test on HCT-116 cells [3] it was less than 10 nM. Further, the “T/C (%)” value in test [2] (setting [4]) worked out at 74%; in test [2] (setting [5]), 75%.
Turning to `O=C(Nc1cn(Cc2cc(F)c(F)c(F)c2)cn1)c1cnc(CO)c(C(F)F)c1` [Example 18, 5-(difluoromethyl)-6-(hydroxymethyl)-N-[1-(3,4,5-trifluorobenzyl)-1H-imidazol-4-yl]nicotinamide], the IC50 is 53 nM with HCT-116 cells [1] and less than 10 nM with HCT-116 cells [3]. The entries for the “T/C (%)” value in test [2] (setting [4]) and in test [2] (setting [5]) were 63% and 54%, respectively.
As to `Nc1cc(C(=O)Nc2cn(Cc3cccc(C(F)(F)F)c3)cn2)cnc1CO` [Example 45, 5-Amino-6-(hydroxymethyl)-N-{1-[3-(trifluoromethyl)benzyl]-1H-imidazol-4-yl}nicotinamide], the IC50 with HCT-116 cells [1] was determined as 59 nM; with HCT-116 cells [3], 29 nM. In addition, the “T/C (%)” value in test [2] (setting [4]) was 90% and 91%; in test [2] (setting [5]), 81%.
For `Nc1cc(C(=O)Nc2cn(Cc3cc(F)c(F)c(F)c3)cn2)cnc1CO` [Example 46, 5-Amino-6-(hydroxymethyl)-N-[1-(3,4,5-trifluorobenzyl)-1H-imidazol-4-yl]nicotinamide], the values for the IC50 with HCT-116 cells [1] and in the test on HCT-116 cells [3] were 57 nM and 10 nM, respectively. Moreover, the “T/C (%)” value in test [2] (setting [5]) came out at 91%.
With `Cc1cccc(Cn2cnc(NC(=O)c3cnc(CO)c(C(F)F)c3)c2)c1` [Example 63, 5-(difluoromethyl)-6-(hydroxymethyl)-N-[1-(3-methylbenzyl)-1H-imidazol-4-yl]nicotinamide], the IC50 in the test on HCT-116 cells [1] came to 600 nM; with HCT-116 cells [3], 690 nM.
For `O=C(Nc1cn(Cc2ccc(F)c(F)c2)cn1)c1cnc(CO)c(C(F)F)c1` [Example 54, N-[1-(3,4-difluorobenzyl)-1H-imidazol-4-yl]-5-(difluoromethyl)-6-(hydroxymethyl)nicotinamide], the values for the IC50 with HCT-116 cells [1] and in the test with HCT-116 cells [3] were 603 nM and 148 nM, respectively.
As to `Cc1cc(C(=O)Nc2cn(Cc3cc(F)c(F)c(F)c3)cn2)cnc1CO` [Example 39, 6-(hydroxymethyl)-5-methyl-N-[1-(3,4,5-trifluorobenzyl)-1H-imidazol-4-yl]nicotinamide], the IC50 in the test with HCT-116 cells [1] and with HCT-116 cells [3] was less than 10 nM in each case. The figures for the “T/C (%)” value in test [2] (setting [4]) and in test [2] (setting [5]) were 79% and 65%, respectively.
On to `O=C(Nc1cn(Cc2cc(F)c(F)c(F)c2)cn1)c1cnc(CO)c(Cl)c1` [Example 41, 5-Chloro-6-(hydroxymethyl)-N-[1-(3,4,5-trifluorobenzyl)-1H-imidazol-4-yl]nicotinamide], for which the IC50 with HCT-116 cells [1] came to 59 nM; in the test with HCT-116 cells [3] it was 51 nM.
`O=C(Nc1cn(Cc2cc(F)cc(F)c2)cn1)c1cnc(CO)c(C(F)F)c1` [Example 79, N-[1-(3,5-difluorobenzyl)-1H-imidazol-4-yl]-5-(difluoromethyl)-6-(hydroxymethyl)nicotinamide]: the IC50 in the test on HCT-116 cells [1] turned out to be 60 nM; with HCT-116 cells [3], 80 nM.
Consider `O=C(Nc1cn(Cc2ccc(Br)c(F)c2)cn1)c1cnc(CO)c(C(F)F)c1` [Example 67, N-[1-(4-bromo-3-fluorobenzyl)-1H-imidazol-4-yl]-5-(difluoromethyl)-6-(hydroxymethyl)nicotinamide], for which the IC50 in the test with HCT-116 cells [1] is 70 nM; with HCT-116 cells [3], 40 nM.
